Measurements taken from PMC6349357, “Computational and experimental analysis of bioactive peptide linear motifs in the integrin adhesome” (PLoS ONE, 2019).
Marks after values point to notes of the source that are not given here.

Columns and labels:
resting platelets = test: Platelet aggregation induced by peptide in resting washed platelets (activation); format: cell-based, human (healthy volunteers); conditions: for Activation: platelet aggregation in resting platelets after 6 minutes incubation with peptide, pal-peptides 20 μM, tat-peptides 50 μM, optical density, aggregometer, mean, n>=3; for Aggregation before TRAP activation, donor h: replicate donor h; for Aggregation before TRAP activation, donor i: replicate donor i; for Aggregation before TRAP activation, donor j: replicate donor j; for Activation, 5μM / Activation, 20μM: S3 Table, n=3; for Activation, 5μM: peptide 5 μM; for Activation, 20μM: peptide 20 μM
Procedure, shortened: (§1)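 Washed human platelets (from ACD blood, PGE1-treated) were used at 3x10^5/μl in buffer A pH 7.4 with 1.8 mM CaCl2. Light-transmission aggregometry ran at 37°C with stirring at 1100 rpm. Peptide or buffer was added at 2 min, TRAP 6 min later, and aggregation was recorded for a further 7 min.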

[1] = test system: tyrosine phosphorylation in platelets; test: Phosphotyrosine western blot (4G10) of platelets treated with peptide; format: cell-based, human (healthy volunteers); design: key to Phospho: R: in resting platelets; A: after TRAP activation; conditions: for Phospho: phosphorylation changes associated with peptide treatment, pal 20 μM, tat 50 μM, TRAP 4 μM
Method: A platelet concentration of 3x10^5 /μl was used when performing standard aggregations and a concentration of 1x10^6 /μl was used for sample preparation for western blot analysis. The extent of platelet aggregation was measured by quantifying the optical density of the samples using the Bio-Data PAP-8 aggregometer (platelet aggregation profiler, Horsham, PA, USA). A temperature of 37°C was maintained and samples were stirred using magnets spinning at 1100 rpm. 200 μl of washed platelets was added to each aggregation tube. Different volumes of buffer, peptide and TRAP were added to achieve the desired concentrations. Peptide/buffer was added to each well after two minutes. TRAP, with a final concentration depending on the experiment, was added 6 minutes later and data was collected for an additional 7 minutes.
After the aggregation step, tubes were immediately placed on ice. 27 μl of lysis buffer was then added and the tube was vortexed vigorously. Lysates were left on ice for one hour and vortexed frequently. Proteins were then centrifuged at 14,000 rcf for 10 minutes to remove debris. Samples were then mixed with 2x sample buffer. 50 μl each sample was added to 50 μl of sample buffer. The protein was then denatured by heating to 95°C for 5 minutes. 10 μl of lysate was kept for protein quantification. All samples and lysates were frozen at -80°C.
The Bradford assay was then performed on the lysates to determine protein concentration. Protein concentrations were measured using the Bio-Rad DC Protein Assay. A calibration was created using samples containing a known concentration of bovine serum albumin. These were prepared in advance by sequential dilutions with final concentrations of 1.5mg/ml, 1mg/ml, 0.8mg/ml, 0.6mg/ml, 0.4mg/ml, 0.2mg/ml, 0mg/ml. Samples were then dispensed into a 96 well plate and the Bio-Rad DC reagents were added as described in the protocol. Samples were left to rest for 15 minutes and were then read using 690 0.15 mode on the Wallac plate reader. A standard curve was calculated from the standard samples of known concentration and the y = ax+b equation was used to determine the concentration of the other samples.
Sodium Dodecyl Sulfate Polyacrylamide Gel Electrophoresis (SDS-PAGE) was performed to separate proteins by molecular weight. Polyacrylamide gels were prepared (see Reagents section). Samples or molecular markers were loaded in volumes to give 20 μg of protein. The gels were then run for approximately 80 minutes or until the samples reached the end of the gel. The proteins were then transferred to polyvinylidene difluoride (PVDF) membranes using a Bio-Rad Wet Blot Transfer Cell apparatus. During the transfer the membranes were submerged in 1x transfer buffer (10% 10x transfer buffer, 70% deionised water and 20% methanol). Transfer was performed either overnight at 40 volts at 4°C, or at 100 volts for 1 hour cooled with an ice block. After the transfer the membranes were blocked for 1 hour using 3% bovine albumin serum (BSA) dissolved in TBS-T. Membranes were incubated with 4G10 antibody with a 1:1000 dilution. Unbound primary antibody was washed off with TBS-T three times for 5 minutes each. Membranes were then incubated with anti-mouse IgG secondary antibody (Millipore) with a dilution of 1:30,000. Membranes were submerged in chemiluminescence ECL solution (Thermo Scientific). They were then measured using the western blot developer UVP. One image was taken every 80 seconds for 40 minutes. Numeric data was extracted from selected blots using ImageJ.

TRAP-activated platelets = test: Inhibition of TRAP-induced platelet aggregation after pre-incubation with peptide; format: cell-based, human (healthy volunteers); conditions: for Aggregation after TRAP, peptide alone 1x (A 1x / B 1x) / Aggregation after TRAP, peptide alone 2x (A 2x / B 2x): TRAP 2 μM after 6 minutes pre-incubation, mean n = 3; for Aggregation after TRAP, peptide alone 1x (A 1x / B 1x): 4 μM pal-peptides, 10 μM tat-peptides; for Aggregation after TRAP, peptide alone 2x (A 2x / B 2x): double concentration of 4 μM (pal) / 10 μM (tat); for Aggregation after TRAP activation, donor h: replicate donor h; for Aggregation after TRAP activation, donor i: replicate donor i; for Aggregation after TRAP activation, donor j: replicate donor j
Procedure, shortened: as §1

[2] = format: physicochemical
Method: Peptides were stored in powder form at -80°C. Prior to use, they were left at room temperature for one hour. They were then mixed with a specific volume of deionised water to bring them to a 1mM concentration and were then aliquoted and frozen at -80°C. They were thawed a single time before use and discarded after an experiment. Peptides which were not soluble in deionised water (pal-APTNEFYA, pal-LEEDDEEGE, pal-TNITYRGT and pal-KLLITIHDRKE) were dissolved in a 10% DMSO and 90% deionised water solution (leading to a final concentration of 0.2% DMSO when combined with platelets, see below). These peptides were further diluted during platelet aggregations.

[3] = platelet aggregation induced by 4 μM TRAP in platelets pre-incubated with peptide (low value = inhibition), pal-peptides 20 μM, tat-peptides 50 μM, mean, n>=3
[4] = TRAP 4 μM, pal 20 μM, tat 50 μM
[5] = S3 Table, peptide 5 μM, aggregation after TRAP, n=3
[6] = S3 Table, peptide 20 μM, aggregation after TRAP, n=3

tat-DPMSSTYIEELGKREVTIPPKYRELLA-(NH2) [tat-CAST_1, tat peptide from calpastatin (CAST)]
Activation (resting platelets; unit assumed): 3% | Aggregation before TRAP activation, donor h (resting platelets; pal 20 μM, tat 50 μM): 4 | Aggregation before TRAP activation, donor i (resting platelets; pal 20 μM, tat 50 μM): 4 | Aggregation before TRAP activation, donor j (resting platelets; pal 20 μM, tat 50 μM): 3 | Phosphotyrosine blot density, peptide + TRAP, Average ([1]; average of 3 replicates, tat peptide 50 µM, TRAP 4 µM): 64.53 | Phosphorylation in resting platelets ([1]; in words): no effect | Phosphorylation intensity of TRAP activated platelets ([1]; in words, p = 0.03): increased the phosphorylation intensity | Phospho [1]: A | relative density (peptide lane to activated control), replicate 1 ([1]; replicate 1): 4.12 | Phosphotyrosine blot density, peptide + TRAP, replicate 1 ([1]; replicate 1, tat peptide 50 µM, TRAP 4 µM): 80 | relative density (peptide lane to activated control), replicate 2 ([1]; replicate 2): 1.42 | Phosphotyrosine blot density, peptide + TRAP, replicate 2 ([1]; replicate 2, tat peptide 50 µM, TRAP 4 µM): 58.7 | relative density (peptide lane to activated control), replicate 3 ([1]; replicate 3): 1.22 | Phosphotyrosine blot density, peptide + TRAP, replicate 3 ([1]; replicate 3, tat peptide 50 µM, TRAP 4 µM): 54.9 | Aggregation after TRAP, peptide alone 1x (A 1x / B 1x) (TRAP-activated platelets): 70.33 | Aggregation after TRAP, peptide alone 2x (A 2x / B 2x) (TRAP-activated platelets): 70.67 | Platelet aggregation remaining after TRAP (low = inhibition) (TRAP-activated platelets; [3]): 72 | Aggregation after TRAP activation, donor h (TRAP-activated platelets; [4]): 77 | Aggregation after TRAP activation, donor i (TRAP-activated platelets; [4]): 63 | Aggregation after TRAP activation, donor j (TRAP-activated platelets; [4]): 76

pal-KVGFFKR-(NH2) [pal-ITGA2B_JM, N-terminally palmitylated ITGA2B juxtamembrane peptide KVGFFKR]
Activation, 5μM (resting platelets; unit assumed): 66% | Activation, 20μM (resting platelets; unit assumed): 62% | Activation (resting platelets): 17 ^* | Aggregation before TRAP activation, donor h (resting platelets; pal 20 μM, tat 50 μM): 30 | Aggregation before TRAP activation, donor i (resting platelets; pal 20 μM, tat 50 μM): 11 | Aggregation before TRAP activation, donor j (resting platelets; pal 20 μM, tat 50 μM): 12 | Phospho [1]: R | Platelet aggregation remaining after TRAP (low = inhibition) (TRAP-activated platelets; [5]): 73 | Platelet aggregation remaining after TRAP (low = inhibition) (TRAP-activated platelets; [6]): 69 | Aggregation after TRAP, peptide alone 1x (A 1x / B 1x) (TRAP-activated platelets): 37.33 | Aggregation after TRAP, peptide alone 2x (A 2x / B 2x) (TRAP-activated platelets): 49.33 | Platelet aggregation remaining after TRAP (low = inhibition) (TRAP-activated platelets; [3]): 50 | Aggregation after TRAP activation, donor h (TRAP-activated platelets; [4]): 52 | Aggregation after TRAP activation, donor i (TRAP-activated platelets; [4]): 36 | Aggregation after TRAP activation, donor j (TRAP-activated platelets; [4]): 64

pal-APTNEFYA [pal-SDC4_tail, N-terminally palmitylated syndecan-4 tail peptide]
Activation, 5μM (resting platelets; unit assumed): 2% | Activation, 20μM (resting platelets; unit assumed): 2% | Activation (resting platelets; unit assumed): 7% | Activation, donor 14 06 13 (resting platelets; replicate 14_06_13, SDC4 peptides and controls, 20 μM, unit assumed): 2% | Activation, donor 18_06_13 (resting platelets; replicate 18_06_13, SDC4 peptides and controls, 20 μM, in % (unit assumed)): 3 | Activation, donor 20_06_13 (resting platelets; replicate 20_06_13, SDC4 peptides and controls, 20 μM, in % (unit assumed)): 2 | Activation, donor 20 08 13 (resting platelets; replicate 20_08_13, SDC4 peptides and controls, 20 μM, unit assumed): 5% | Activation, donor 22_08_13_DONOR1 (resting platelets; replicate 22_08_13_DONOR1, SDC4 peptides and controls, 20 μM): 2 | Activation, donor 22_08_13_DONOR2 (resting platelets; replicate 22_08_13_DONOR2, SDC4 peptides and controls, 20 μM): 2 | Aggregation before TRAP activation, donor d (resting platelets; replicate donor d, pal 20 μM, tat 50 μM): 2 | Aggregation before TRAP activation, donor f (resting platelets; replicate donor f, pal 20 μM, tat 50 μM): 4 | Aggregation before TRAP activation, donor g (resting platelets; replicate donor g, pal 20 μM, tat 50 μM): 15 | Solubility in deionised water [2]: not soluble | Aggregation (inhibition effects of syndecan-derived peptides) (TRAP-activated platelets; S2 Table A, peptide 20 μM, TRAP 4 μM, mean, n=6): 34 | Summary of effects of SDC4-derived palmitylated peptides and scrambled controls, 20μM (TRAP-activated platelets; S2 Table B / S2 Fig, 20 μM, activation of resting platelets and inhibition of aggregation induced by 4 μM TRAP, in words): Inhibitor | Platelet aggregation remaining after TRAP (low = inhibition) (TRAP-activated platelets; [5]): 61 | Platelet aggregation remaining after TRAP (low = inhibition) (TRAP-activated platelets; [6]): 34 | Aggregation after TRAP, peptide alone 1x (A 1x / B 1x) (TRAP-activated platelets): 27.67 | Aggregation after TRAP, peptide alone 2x (A 2x / B 2x) (TRAP-activated platelets): 24.67 | Platelet aggregation after TRAP activation (TRAP-activated platelets; [3]): 34 ^* | Inhibition, donor 14_06_13 (TRAP-activated platelets; replicate 14_06_13, peptide 20 μM, TRAP 4 μM): 40 | Inhibition, donor 18_06_13 (TRAP-activated platelets; replicate 18_06_13, peptide 20 μM, TRAP 4 μM): 67 | Inhibition, donor 20_06_13 (TRAP-activated platelets; replicate 20_06_13, peptide 20 μM, TRAP 4 μM): 51 | Inhibition, donor 20_08_13 (TRAP-activated platelets; replicate 20_08_13, peptide 20 μM, TRAP 4 μM): 11 | Platelet aggregation remaining after TRAP (low = inhibition) (TRAP-activated platelets; replicate 22_08_13_DONOR1, peptide 20 μM, TRAP 4 μM): 6 | Platelet aggregation remaining after TRAP (low = inhibition) (TRAP-activated platelets; replicate 22_08_13_DONOR2, peptide 20 μM, TRAP 4 μM): 34 | Aggregation after TRAP activation, donor d (TRAP-activated platelets; replicate donor d, TRAP 4 μM, pal 20 μM, tat 50 μM): 9 | Aggregation after TRAP activation, donor f (TRAP-activated platelets; replicate donor f, TRAP 4 μM, pal 20 μM, tat 50 μM): 54 | Aggregation after TRAP activation, donor g (TRAP-activated platelets; replicate donor g, TRAP 4 μM, pal 20 μM, tat 50 μM): 41

TLELDRLMASLSDFRVQNHLP-tat-(NH2) [TGFB1I1_LD-tat, TGFB1I1 LD motif peptide with C-terminal tat]
Activation (resting platelets; unit assumed): 3% | Aggregation before TRAP activation, donor h (resting platelets; pal 20 μM, tat 50 μM): 3 | Aggregation before TRAP activation, donor i (resting platelets; pal 20 μM, tat 50 μM): 4 | Aggregation before TRAP activation, donor j (resting platelets; pal 20 μM, tat 50 μM): 4 | Phospho [1]: R | Aggregation after TRAP, peptide alone 1x (A 1x / B 1x) (TRAP-activated platelets): 67.33 | Aggregation after TRAP, peptide alone 2x (A 2x / B 2x) (TRAP-activated platelets): 65.67 | Platelet aggregation remaining after TRAP (low = inhibition) (TRAP-activated platelets; [3]): 66 | Aggregation after TRAP activation, donor h (TRAP-activated platelets; [4]): 74 | Aggregation after TRAP activation, donor i (TRAP-activated platelets; [4]): 59 | Aggregation after TRAP activation, donor j (TRAP-activated platelets; [4]): 67
